These results are taken from patent US10149472B2, “Chitin oligomers for use in promoting non-leguminous plant growth and development” (Wisconsin Alumni Research Foundation, priority 2015, dated 2018).

For assay [1], the system named is rice trichoblasts (root hair cells). The assay is described as follows: Calcium spiking (YC3.6 imaging) in rice trichoblasts (root hair cells). As to conditions: 10^−5 M, FIG. 5, FIG. 6. Type of assay: cell-based, Oryza sativa cv Nipponbare. As to the method:
Mycorrhizal induced calcium responses were measured as described previously (14). Transgenic Oryza sativa Nipponbare lines carrying Yellow Cameleon 3.6 (YC3.6) FRET-based calcium sensor was used to detect calcium spiking. YC3.6 was imaged on a Nikon Eclipse Ti inverted microscope (Nikon, Japan) equipped with an OptoLED Illuminator (model OptoLED, Cairn Research Ltd, UK). YC3.6 was excited at a wavelength of 455 nm using a royal blue LED and was captured with a charge-coupled device (CCD) camera (model RETIGA-SRV, Qimaging, Canada). Emitted fluorescence was separated by an image splitter with a dichroic mirror (model Optosplit II, Cairn Research Ltd, UK) and then passed through a fluorescence filter set. Images were collected every 5 seconds with 1-second exposure and analyzed using MetaFluor (Molecular Devices, Sunnyvale, Calif., USA).
Both LCOs and COs are Required to Induce Calcium Spiking in Trichoblasts. Rhizobia colonize legumes by root hair cells (trichoblasts), whereas AM fungi colonize roots via non-root hair epidermal cells (atrichoblasts). Thus, these different root epidermal cell types may respond differently to COs and LCOs. To test this, we directly compared trichoblast and atrichoblast responses using high concentrations of CO4 in rice. Calcium oscillations observed in rice following treatments of CO4 were restricted to atrichoblasts, with no responses in trichoblasts even with CO4 treatments of 10^−5 M (FIG. 5). This preferential nature of rice atrichoblasts to respond to the AM signals is consistent with a preference for AM fungi to colonize the root via atrichoblasts (26). It is possible that either AM fungi produce signalling molecules other than S-LCO, NS-LCO and CO4 that induce calcium oscillations in rice trichoblasts, or that the mix of signalling molecules is important. To test this, we assessed induction of calcium oscillations by an equimolar mix of 10^−5 M S-LCO, NS-LCO, and CO4.

The subject of another assay is rice. The assay is described as follows: Root architecture modification in wild-type rice after submersion treatment. The format is in vivo, Oryza sativa cv Nipponbare. As to conditions: 10^−8M, 24 hours submersion, assessed after two weeks, FIG. 3. The protocol:
(§1) Oryza sativa cv Nipponbare wild-type and Tos17 insertion lines in POLLUX (line NC6453) and DMI3 were used for root architecture experiments (12, 13). Seeds were prepared by sterilizing with 2% bleach for 20 minutes, followed by 3, 5-minute rinses with sterile water. The sterile seeds were then imbibed overnight. Seeds were then plated on damp germination paper in Petri plates under sterile conditions and germinated in the dark at 25 degrees for 7 days. Germinated rice plants were then plated on Fahraeus medium on germination paper and grown at 22 degrees under constant light. After 5 days the plants were treated with 10^−8M LCOs and COs for 24 hours by submersion and re-plated onto Fåhræus Medium 1.5% agar plates (0.132 g/L CaCl2, 0.12 g/L MgSO4.7H2O, 0.1 g/L KH2PO4, 0.075 g/L Na2HPO4.2H2O, 5 mg/L Fe-citrate, and 0.07 mg/L each of MnCl2.4H2O, CuSO4.5H2O, ZnCl2, H3BO3, and Na2MoO4.2H2O, adjusted to pH 6.5 before autoclaving). As all signals were suspended in 50% ethanol, the appropriate concentration of ethanol in sterile DI water served as a control. Root system architecture was assessed after 2 weeks.
(§2) Total lateral roots of rice were enumerated manually two weeks after application of 10^−8M COs and LCOs. As COs and LCOs were suspended in 50% ethanol, the control is sterile deionized water containing the appropriate amount of ethanol. Lateral roots were defined as large and fine lateral roots emerging from crown roots, as well as fine lateral roots emerging from large lateral roots. Root system length was measured starting from the root-shoot junction to the tip of the longest root. The number of crown roots was assessed manually as those roots emerging from the root-shoot junction. Root type characterizations were based upon the descriptions in Gutjahr et al. (19). Data were assessed for normality using the Shapiro-Wilk test (α=0.01), and statistical significance was determined using a paired t-test assuming unequal variances, or a Mann-Whitney-Wilcoxon Test if normality was not observed (α=0.05). All statistical analysis was conducted using the R software package (20).

The subject of assay [2] is rice knock-out mutants of pollux and dmi3. The assay is described as follows: Root architecture modification in rice Ospollux and Osdmi3 mutants. Type of assay: in vivo, Oryza sativa cv Nipponbare. As to conditions: 10^−8M; Ospollux and Osdmi3 mutants vs wild-type; FIG. 4. As to the method:
as §1
as §2, with “Lateral roots were defined as large and fine lateral roots emerging from crown roots, as well as fine lateral roots emerging from large lateral roots.” left out, “Root type characterizations were based upon the descriptions in Gutjahr et al. (19).” left out, “All statistical analysis was conducted using the R software package (20).” left out
To assess the role of the common symbiotic pathway in regulating root architecture modifications in response to purified LCOs and COs, we quantified root responses to mycorrhizal signals in rice knock-out mutants of pollux (upstream of calcium spiking) and dmi3 (downstream of calcium spiking).

For the next assay, the system named is M. truncatula. The assay is described as follows: Lateral root emergence in M. truncatula. The format is in vivo, Medicago truncatula. As to conditions: 10^−7 M; fold induction relative to the control; FIG. 7. As to the method:
M. truncatula roots were treated with 10^−7 M CO4 or 10^−7 M NS-LCO and the effect on lateral root emergence was measured. The numbers in parentheses indicate the number of plants analyzed. The significance of the difference to the […] control plants, as measured using a t-test, is indicated. The treatments are measured as fold induction relative to the control. Error bars represent the standard error.
Accordingly, the disclosed method is limited in scope to treating non-leguminous plants, or seeds, seedlings or plant parts thereof.

For the substance LCO-IV (C16:0, S or C18:1, S) [S-LCO], in assay [1], the “calcium spiking in trichoblasts” value is reported as “did not induce calcium spiking”. Also, in the assay on rice, the crown root growth result is reported as “promoted” and the lateral root growth result was “promoted”.
For LCO-IV (C16:0 or C18:1) [NS-LCO], in assay [1], the “calcium spiking in trichoblasts” value is “did not induce calcium spiking”. Also, the “dependence of overall root length increase on POLLUX / DMI3” value in assay [2] is “dependent upon both POLLUX and DMI3”. Further, the lateral root emergence result with M. truncatula is “promotion”. In addition, in the assay on rice, the crown root growth entry was “promoted”, the lateral root growth entry is “promoted” and the root system length entry is listed as “enhanced”.
